Assay results as given in patent EP1203771A1, “REMEDIES OR PREVENTIVES FOR FREQUENT URINATION OR URINARY INCONTINENCE” (TORAY INDUSTRIES, INC., priority 1999, dated 2001).
Structures can show the parent of a compound that is named as a salt.

System: Rhythmic Bladder Contraction of Rats
Assay: Effect on rhythmic bladder contraction of rats (urethane-anesthetized, saline infusion into bladder, intravesical pressure)
Assay type: in vivo
Conditions: anesthetized female SD rats
Protocol: Effect on Rhythmic Bladder Contraction of Rats
Female SD rats were anesthetized with an intraperitoneal injection of urethane (1.0 g/kg). A polyethylene tube was inserted from urethral opening to the bladder and the tube was fixed by ligating. Physiological saline was appropriately infused via the tube (rate of infusion: about 0.2 ml/min; maximum dose: about 1.5 ml/rat) to induce rhythmic contraction of bladder. The rhythmic contraction of bladder was monitored by measuring the intravesical pressure through the polyethylene tube inserted into the bladder. After confirming that stable rhythmic contraction occurred at least 10 times, each test compound was intravenously administered at a doseof 1 ml/kg. If the intravesical pressure became, within 10 minutes from the administration of the test compound, not more than 50% of the intravesical pressure at the time point immediately after the administration of the test compound, it was judged that […], and the time period until the intravesical pressure again became not less than 50% was defined as the rhythmic bladder contraction-inhibiting time. As the solvent for administration of the test compounds, 5% xylitol was used for test Compounds 1, 2, 3, 4, 5, 11, 12, 21, 23 and 24; physiological saline was used for test Compounds 6, 9, 10, 13, 14, 15, 16, 17, 18, 19, 20 and 22; 10% ethanol solution was used for test Compound 7; and 10% DMSO solution was used for test Compound 8. The solvents 5% xylitol solution, 10% ethanol solution and 10% DMSO solution, each of which is said to somewhat influence on the rhythmic bladder contraction-inhibiting time, were also tested at the dose of 1 ml/kg. […]

[1] = 10 mg/kg intravenously, solvent physiological saline
[2] = 10 mg/kg intravenously, solvent 5% xylitol
[3] = 1 mg/kg intravenously, solvent physiological saline
[4] = 3 mg/kg intravenously, solvent physiological saline
[5] = 30 mg/kg intravenously, solvent 5% xylitol

## Oc1ccc2c3c1O[C@H]1c4nc5c(cc4C[C@@]4(O)[C@@H](C2)N(CC2CC2)CC[C@]314)cc1c2c(cccc25)CC1 [Compound 3, 17-cyclopropylmethyl-6,7-dehydro-4,5α-epoxy-3,14β-dihydroxy-6,7,2',3'-(6',6"-ethano-7',8'-benzoquinolino)morphinan methanesulfonic acid salt]
20 mg/kg intravenously, solvent 5% xylitol
  Mean Rhythmic Bladder Contraction-inhibiting Time: 5.0 min

## CN1CC[C@]23c4c5ccc(O)c4O[C@H]2c2nc4c(Cl)cccc4cc2C[C@@]3(O)[C@H]1C5 [Compound 10, 17-methyl-6,7-dehydro-4,5α-epoxy-3,14β-dihydroxy-6,7,2',3'-(8'-chloroquinolino)morphinan methanesulfonic acid salt]
[1]
  Mean Rhythmic Bladder Contraction-inhibiting Time: 7.4 min

## CN1CC[C@]23c4c5ccc(O)c4O[C@H]2c2nc4cccc(Cl)c4cc2C[C@@]3(O)[C@H]1C5 [Compound 12, 17-methyl-6,7-dehydro-4,5α-epoxy-3,14β-dihydroxy-6,7,2',3'-(5'-chloroquinolino)morphinan tartaric acid salt]
0.3 mg/kg intravenously, solvent 5% xylitol
  Mean Rhythmic Bladder Contraction-inhibiting Time: 14.6 min

## Oc1ccc2c3c1O[C@H]1c4nc5ccccc5cc4C[C@@]4(O)[C@@H](C2)N(CC2CC2)CC[C@]314 [Compound 21, 17-cyclopropylmethyl-6,7-dehydro-4,5α-epoxy-3,14β-dihydroxy-6,7,2',3'-quinolinomorphinan methanesulfonic acid salt]
[2]
  Mean Rhythmic Bladder Contraction-inhibiting Time: 10.0 min

## Cc1cccc2cc3c(nc12)[C@@H]1Oc2c(O)ccc4c2[C@@]12CCN(C)[C@H](C4)[C@]2(O)C3 [Compound 13, 17-methyl-6,7-dehydro-4,5α-epoxy-3,14β-dihydroxy-6,7,2',3'-(8'-methylquinolino)morphinan methanesulfonic acid salt]
[3]
  Mean Rhythmic Bladder Contraction-inhibiting Time: 6.5 min

## Oc1ccc2c3c1O[C@H]1c4nc5ccccc5cc4C[C@@]4(O)[C@@H](C2)N(CCc2ccc(F)cc2)CC[C@]314 [Compound 24, 17-(4-fluorophenyl)ethyl-6,7-dehydro-4,5α-epoxy-3,14β-dihydroxy-6,7,2',3'-quinolinomorphinan methanesulfonic acid salt]
[2]
  Mean Rhythmic Bladder Contraction-inhibiting Time: 2.3 min

## CN1CC[C@]23c4c5ccc(O)c4O[C@H]2c2nc4ccccc4cc2C[C@@]3(O)[C@H]1C5 [Compound 6, 17-methyl-6,7-dehydro-4,5α-epoxy-3,14β-dihydroxy-6,7,2',3'-quinolinomorphinane methanesulfonic acid salt]
[4]
  Mean Rhythmic Bladder Contraction-inhibiting Time: 24.1 min

## COc1ccc2c3c1O[C@H]1c4nc5ccccc5cc4C[C@@]4(O)[C@@H](C2)N(C)CC[C@]314 [Compound 19, 17-methyl-6,7-dehydro-4,5α-epoxy-3-methoxy-14β-hydroxy-6,7,2',3'-quinolinomorphinan tartaric acid salt]
[3]
  Mean Rhythmic Bladder Contraction-inhibiting Time: 7.7 min

## CN1CC[C@]23c4c5ccc(O)c4O[C@H]2c2nc4ccccc4c(N)c2C[C@@]3(O)[C@H]1C5 [Compound 2, 17-methyl-6,7-dehydro-4,5α-epoxy-3,14β-dihydroxy-6,7,2',3'-(4'-aminoquinolino)morphinan methanesulfonic acid salt]
[2]
  Mean Rhythmic Bladder Contraction-inhibiting Time: 4.5 min

## Oc1ccc2c3c1O[C@H]1c4nc5ccccc5cc4C[C@@]4(O)[C@@H](C2)N(CCc2cccs2)CC[C@]314 [Compound 8, 17-(2-thienyl)ethyl-6,7-dehydro-4,5α-epoxy-3,14β-dihydroxy-6,7,2',3'-quinolinomorphinan methanesulfonic acid salt]
10 mg/kg intravenously, solvent 10% DMSO solution
  Mean Rhythmic Bladder Contraction-inhibiting Time: 19.5 min

## CO[C@@]12Cc3cc4ccccc4nc3[C@@H]3Oc4c(O)ccc5c4[C@@]31CCN(C)[C@@H]2C5 [Compound 9, 17-methyl-6,7-dehydro-4,5 α-epoxy-3-hydroxy-14 β -methoxy-6,7,2',3'-quinolinomorphinan methanesulfonic acid salt]
[3]
  Mean Rhythmic Bladder Contraction-inhibiting Time: 7.3 min

## C=CCN1CC[C@]23c4c5ccc(O)c4O[C@H]2c2nc4ccccc4cc2C[C@@]3(O)[C@H]1C5 [Compound 22, 17-allyl-6,7-dehydro-4,5α-epoxy-3,14β-dihydroxy-6,7,2',3'-quinolinomorphinan methanesulfonic acid salt]
[1]
  Mean Rhythmic Bladder Contraction-inhibiting Time: 1.4 min

## Cc1c2c(nc3ccccc13)[C@@H]1Oc3c(O)ccc4c3[C@@]13CCN(C)[C@H](C4)[C@]3(O)C2 [Compound 4, 17-methyl-6,7-dehydro-4,5α-epoxy-3,14β-dihydroxy-6,7,2',3'-(4'-methylquinolino)morphinan methanesulfonic acid salt]
[2]
  Mean Rhythmic Bladder Contraction-inhibiting Time: 13.9 min

## CC(=O)Oc1ccc2c3c1O[C@H]1c4nc5ccccc5cc4C[C@@]4(OC(C)=O)[C@@H](C2)N(C)CC[C@]314 [Compound 16, 17-methyl-6,7-dehydro-4,5α-epoxy-3,14β-diacetoxy-6,7,2',3'-quinolinomorphinan tartaric acid salt]
0.3 mg/kg intravenously, solvent physiological saline
  Mean Rhythmic Bladder Contraction-inhibiting Time: 15.0 min

## Cc1ccc(CCN2CC[C@]34c5c6ccc(O)c5O[C@H]3c3nc5ccccc5cc3C[C@@]4(O)[C@H]2C6)cc1 [Compound 23, 17-(4-methylphenyl)ethyl-6,7-dehydro-4,5α-epoxy-3,14β-dihydroxy-6,7,2',3'-quinolinomorphinan methanesulfonic acid salt]
[2]
  Mean Rhythmic Bladder Contraction-inhibiting Time: 9.2 min

## CN1CC[C@]23c4c5cccc4O[C@H]2c2nc4ccccc4cc2C[C@@]3(O)[C@H]1C5 [Compound 20, 17-methyl-6,7-dehydro-4,5α-epoxy-14β-hydroxy-6,7,2',3'-quinolinomorphinan tartaric acid salt]
[3]
  Mean Rhythmic Bladder Contraction-inhibiting Time: 11.1 min

## O=C1Nc2c3c(nc4cccc1c24)[C@@H]1Oc2c(O)ccc4c2[C@@]12CCN(CC1CC1)[C@H](C4)[C@]2(O)C3 [Compound 1, 17-cyclopropylmethyl-6,7-dehydro-4,5α-epoxy-3,14β-dihydroxy-6,7,2',3'-[4',5'-[imino(oxomethano)]quinolino]morphinan hydrochloric acid salt]
[5]
  Mean Rhythmic Bladder Contraction-inhibiting Time: 6.2 min

## Oc1ccc2c3c1O[C@H]1c4nc5ccccc5cc4C[C@@]4(O)[C@@H](C2)N(CCc2ccccc2)CC[C@]314 [Compound 7, 17-phenethyl-6,7-dehydro-4,5 α-epoxy-3,14β-dihydroxy-6,7,2',3'-quinolinomorphinan methanesulfonic acid salt]
5 mg/kg intravenously, solvent 10% ethanol solution
  Mean Rhythmic Bladder Contraction-inhibiting Time: 17.1 min

## CC(=O)Oc1ccc2c3c1O[C@H]1c4nc5ccccc5cc4C[C@@]4(O)[C@@H](C2)N(C)CC[C@]314 [Compound 18, 17-methyl-6,7-dehydro-4,5α-epoxy-3-acetoxy-14β-hydroxy-6,7,2',3'-quinolinomorphinane tartaric acid salt]
[3]
  Mean Rhythmic Bladder Contraction-inhibiting Time: 6.6 min

## CN1CC[C@]23c4c5ccc(O)c4O[C@H]2c2nc4c(F)cccc4cc2C[C@@]3(O)[C@H]1C5 [Compound 15, 17-methyl-6,7-dehydro-4,5α-epoxy-3,14β-dihydroxy-6,7,2',3'-(8'-fluoroquinolino)morphinan tartaric acid salt]
[3]
  Mean Rhythmic Bladder Contraction-inhibiting Time: 10.7 min

## CN1CC[C@]23c4c5ccc(O)c4O[C@H]2c2nc4ccccc4c(O)c2C[C@@]3(O)[C@H]1C5 [Compound 5, 17-methyl-6,7-dehydro-4,5α-epoxy-3,14β-dihydroxy-6,7,2',3'-(4'-hydroxyquinolino)morphinan methanesulfonic acid salt]
[5]
  Mean Rhythmic Bladder Contraction-inhibiting Time: 5.7 min

## CN1CC[C@]23c4c5ccc(O)c4O[C@H]2c2nc4ccc(Cl)cc4cc2C[C@@]3(O)[C@H]1C5 [Compound 11, 17-methyl-6,7-dehydro-4,5α-epoxy-3,14β-dihydroxy-6,7,2',3'-(6'-chloroquinolino)morphinan methanesulfonic acid salt]
[2]
  Mean Rhythmic Bladder Contraction-inhibiting Time: 12.4 min

## CC(=O)O[C@@]12Cc3cc4ccccc4nc3[C@@H]3Oc4c(O)ccc5c4[C@@]31CCN(C)[C@@H]2C5 [Compound 17, 17-methyl-6,7-dehydro-4,5α-epoxy-3-hydroxy-14β-acetoxy-6,7,2',3'-quinolinomorphinan tartaric acid salt]
[3]
  Mean Rhythmic Bladder Contraction-inhibiting Time: 7.4 min

## Cc1ccc2nc3c(cc2c1)C[C@@]1(O)[C@H]2Cc4ccc(O)c5c4[C@@]1(CCN2C)[C@H]3O5 [Compound 14, 17-methyl-6,7-dehydro-4,5α-epoxy-3,14β-dihydroxy-6,7,2',3'-(6'-methylquinolino)morphinan methanesulfonic acid salt]
[4]
  Mean Rhythmic Bladder Contraction-inhibiting Time: 12.3 min
